Results from the NIST ThermoML archive (doi:10.1016/j.fluid.2009.09.019).
Numbers after ± are expanded uncertainties.

Columns and labels:
[1] = refractive index (Na D-line) (dimensionless); details: 293.2 K; 101.33 kPa; Liquid; Standard Abbe refractometry
[2] = 293.2 K; 101.33 kPa; Liquid; Vibrating tube method

SMILES | refractive index [1] | mass density [2] [kg/m3]
C1CCCCC1 [cyclohexane] | 1.4263 ± 0.0005 | 778.12 ± 0.61
CCCCCCC [heptane] | 1.3873 ± 0.0004 | 684.1 ± 0.25
CCCCCC [hexane] | 1.375 ± 0.0004 | 660.1 ± 0.25
Cc1ccccc1 [toluene] | 1.4967 ± 0.0004 | 
O=C1CCCO1 [γ-butyrolactone] | 1.4344 ± 0.0005 | 1128.7 ± 1.1
